What was measured:
[1] = tested on: neutrophils; experiment: MPO (myleoperoxidase) content, neutrophil accumulation at the site of restenosis, oral HA; format: in vivo, rat; conditions: FIG. 8
Source text: With respect to neutrophil accumulation, reference is to be had to FIG. 8—MPO Content (oral) where MPO is Myleoperoxidase and MPO has been assayed by the methods known to persons skilled in the art. This assay for detecting myleoperoxidase (which is an enzyme) is a good test and thus a good measure for detecting neutrophils.

[2] = Human serum hyaluronan levels and molecular weight after oral administration; format: in vivo; conditions: oral 30.0 mg/kg, m.w. less than 750,000 daltons (Protein Standard), FIG. 10
Source text: FIGS. 11A, 11B and 11C illustrate the release of amounts of hyaluronic acid into the blood stream of individuals (human) who have taken hyaluronan orally and the molecular weights of the serum hyaluronan released by the bodily processes. The molecular weights of the hyaluronan released into the human blood serum appear to include amounts at peaks between 400,000 daltons and 600,000 daltons such as less than 500,000 daltons, between about 200,000 and about 300,000 such as greater than 200,000 daltons, and between about 30,000 daltons and about 80,000 daltons (determined using the Dextran Standard).
FIG. 10 illustrates the mean serum hyaluronan concentration after giving individual humans oral dosages containing 30.0 mg/kg of hyaluronan (molecular weight less than 750,000 daltons determined by the Protein Standard).

[3] = tested on: rat carotid artery; experiment: Stenosis after balloon angioplasty injury of the rat carotid artery, oral HA; format: in vivo; conditions: for N/I RATIO ± S.E.M. (NEOINTIMA /INTIMA RATIO WHERE N IS NEOINTIMA AND I IS INTIMA): rat carotid artery after balloon injury, mean of four animals
Source text: FIG. 6 consists of a series of photographs of the cross-sections through carotid arteries of rats showing the effects of different amounts of orally administered Hyaluronan in stenosis of the rat carotid arteries:
All vessels were injured with a fogherty balloon as described in the prior art (Forns et. al., 1994) Cross-sections of arteries of rats treated with HA, saline or left untreated are as shown:
These values represent the mean of, and standard error of the mean (S.E.M.) of, four animals. These experiments were repeated twice with similar results.
FIG. 7 illustrates the effects of oral administration of HA on Neointimal formation in rats after balloon angioplasty. Six groups of tests were conducted, each test in respect of 3 rats. Thus, the six test results shown in […] resulted from the use of 18 rats. […] This is consistent with the findings illustrated in FIGS. 6 and 8 and the discussion herein.

[4] = Rat serum hyaluronic acid levels and molecular weight after oral administration (gel filtration, carbazole and aggrecan ELISA-like assay); format: in vivo; conditions: for serum/blood HA amount after oral compared with subcutaneous administration: oral 30 mg/kg vs subcutaneous 30-100 mg/kg
Protocol: Elisa-Like Assay for Hyaluronic Acid in Column Fractions from Serum Obtained after the Oral Administration of Sodium Hyaluronate at 30 mg/kg (400.000)Daltons Mean Average Molecular Weight Distribution (Protein Standard), 2% by Weight in Sterile Water)
using 2 mL fraction volumes.
B.) Elisa-Like Assay for Hyaluronic Acid
Prior to assay the column fractions were prepared in the following manner:
1900 μ.L of each 2 mL fraction was frozen at—80° C. and then taken to dryness on a speed vac concentrator at room temperature.
fractions were reconstituted with 125 μ.L of ddH2O and then assayed.
The sharp drop in serum hyaluronic acid levels seen at 3 and 6 hours post-feeding appears to be a real event since it was reproduced in serum analyzed from two different animals for each time point. The overall trend appears to be satisfactory. It is indicative of an initial absorption of sodium hyaluronate in the stomach (1 hour post-feeding of HA) followed by a rapid clearance of this initial “pulse” from the blood. The second “pulse” of increased serum hyaluronic acid (9-12 hours post-feeding of HA) appears then to represent a second phase of absorption, as the administered sodium hyualuronate moves into the small and large intestine. The majority of serum hyaluronic acid at 1 hour and 9 hours post-feeding of HA (FIG. 3 (A), (D)) elutes in the region of V, indicating a molecular weight >71 kDa(Kilodaltons (high molecular weight species). Between 12-24 hours post-feeding (FIG. 3 (E), (G)), there appears to be an emergence of smaller molecular weight hyaluronic acid species in the molecular weight range between about 30 and about >80 kDa, and more particularly between 71-37.7 kDa (Kilo-daltons (peaks 1,2 and 3 in FIG. 1(G), representing 55.5, 47 and 38 kDa, respectively (Protein Standard). Two assays were used to measure HA in serum: (i) carbazole, and (ii) aggrecan assay.
F: Carbazole Assay for the Determination of Glucuronic Acid
For this assay, a linear response has been achieved with hyaluronic acid standards up to 200 μg./mL, (the range of linearity is expected to be extendible to even higher standard concentrations).
Place 3 mL of 0.025 M sodium tetraborate solution in glass tubes and cool thoroughly on ice prior to addition of samples and standards.
Carefully layer (so as to avoid mixing) 0.5 mL of sample or standard over the sodium tetraborate solution in the reaction tubes and place tubes back on ice until all tubes have been prepared.
Mix the contents of each tube thoroughly with a vortex mixer and return the tube to the ice, while mixing the others, to prevent excessive heating of sample.
Place reaction tubes in a 90° C. water bath for 10 minutes and then transfer to a tub of cool water for 5-10 minutes.
Add 100 μ.L of 0.125% carbazole solution to each tube and mix thoroughly with a vortex mixer.
Re-heat the reaction tubes in the 90° C. water bath for an additional 15 minutes. Transfer to a tub of cool water for 5-10 minutes.
Measure absorbance of samples and standards at 530 nm.
After completion of the reaction,transfter 200 μ.L of each sample and standard to individual wells of a 96 well microtest plate. Immediately measure the sample absorbance at 530 ηm (550 ηm, given the available filters with some instruments) using a microplate reader. Biotinylated Aggregcan, an HA binding protein, can be used to detect low levels of HA in serum by in ELISA assay that has been published and is known to persons skilled in the art. This assay is more sensitive than the carbazole assay and was used for conformation.

[5] = oral 30 mg/kg, 12-24 hours post-feeding, Protein Standard

Substance: sodium hyaluronate [HA]
- neutrophil number (MPO content) at the site of restenosis [1]: reduces the number of neutrophils
- time window of increased serum hyaluronan levels [2]: 4 to 12 h
- N/I RATIO ± S.E.M. (NEOINTIMA /INTIMA RATIO WHERE N IS NEOINTIMA AND I IS INTIMA) ([3]; 1 mg/kg orally): 2.6 ± 0.8
- N/I RATIO ± S.E.M. (NEOINTIMA /INTIMA RATIO WHERE N IS NEOINTIMA AND I IS INTIMA) ([3]; 3 mg/kg orally): 1.7 ± 0.4
- N/I RATIO ± S.E.M. (NEOINTIMA /INTIMA RATIO WHERE N IS NEOINTIMA AND I IS INTIMA) ([3]; 10 mg/kg orally): 0.4 ± 0.03
- N/I RATIO ± S.E.M. (NEOINTIMA /INTIMA RATIO WHERE N IS NEOINTIMA AND I IS INTIMA) ([3]; 30 mg/kg orally): 0.99 ± 0.06
- N/I RATIO ± S.E.M. (NEOINTIMA /INTIMA RATIO WHERE N IS NEOINTIMA AND I IS INTIMA) ([3]; 100 mg/kg orally): 1.1 ± 0.08
- neointimal to total wall ratio, order of the dose groups ([3]; oral HA, rats after balloon angioplasty, 3 rats per group, FIG. 7): greater for administration of saline, followed by the administration of HA in amounts per kilogram of body weight of 1 mg, then 100 mg, 10 mg and 3 mg
- oral dose with optimal effects on smooth muscle cell proliferation ([3]; oral administration, rat, FIG. 6): 3 to 10 mg/kg
- serum/blood HA amount after oral compared with subcutaneous administration [4]: similar
- serum/blood HA amount after oral compared with subcutaneous administration ([4]; listed as sodium hyaluronate): on the order of that seen for the subcutaneous administration of this compound at 30-100 mg/kg
- molecular weight of serum hyaluronic acid, peak 1 [4, 5]: 55.5 kDa
- molecular weight of serum hyaluronic acid, peak 2 [4, 5]: 47 kDa
- molecular weight of serum hyaluronic acid, peak 3 [4, 5]: 38 kDa
- molecular weight of the majority of serum hyaluronic acid ([4]; oral 30 mg/kg, 1 hour and 9 hours post-feeding, Protein Standard): > 71 kDa
- time course of HA in blood after oral administration ([4]; oral 30 mg/kg, FIG. 3): burst of HA in blood one hour after administration, a decrease for five hours followed by a steady increase over the next eighteen hours
- time after administration at which serum hyaluronan levels increase ([4]; oral 30 mg/kg, FIG. 4): about 1.25 hours
- first increase of serum hyaluronic acid after oral administration ([4]; single oral dose 30 mg/kg, 2% in sterile water): increased within the first hour
- serum hyaluronic acid after the first pulse ([4]; single oral dose 30 mg/kg, 3 and 6 hours post-feeding): sharp decrease to background levels in normal serum at 3 and 6 hours post-feeding
- second increase of serum hyaluronic acid ([4]; single oral dose 30 mg/kg, from 9 hours post-feeding): increase at 9 hours post-feeding of HA and this increase is sustained over the time period extending up to 24 hours

Reference: patent US6537978B1, “Oral administration of effective amounts of forms of hyaluronic acid” (Jagotec AG, priority 1996, dated 2003)
